These results are taken from patent US20120046329A1, “MODULATORS OF NOD1 AND NOD2 SIGNALING, METHODS OF IDENTIFYING MODULATORS OF NOD1 AND NOD2 SIGNALING, AND USES THEREOF” (Sanford-Burnham Medical Research Institute, priority 2010, published 2012).

Experiment [1] deals with TNF-α induced NF-κB. The experiment is described as follows: TNF-α-induced NF-κB luciferase reporter counterscreen, HEK293T. Format: cell-based, human. As to conditions: Homo sapiens, HEK-293T; TNF-α-stimulated NF-κB luciferase, HEK293T; read-out: TNF-α IC50.
Experiment [2] concerns the target T1, NOD1 (Homo sapiens, UniProt Q9Y239).
T1 sequence (Q9Y239 1-953): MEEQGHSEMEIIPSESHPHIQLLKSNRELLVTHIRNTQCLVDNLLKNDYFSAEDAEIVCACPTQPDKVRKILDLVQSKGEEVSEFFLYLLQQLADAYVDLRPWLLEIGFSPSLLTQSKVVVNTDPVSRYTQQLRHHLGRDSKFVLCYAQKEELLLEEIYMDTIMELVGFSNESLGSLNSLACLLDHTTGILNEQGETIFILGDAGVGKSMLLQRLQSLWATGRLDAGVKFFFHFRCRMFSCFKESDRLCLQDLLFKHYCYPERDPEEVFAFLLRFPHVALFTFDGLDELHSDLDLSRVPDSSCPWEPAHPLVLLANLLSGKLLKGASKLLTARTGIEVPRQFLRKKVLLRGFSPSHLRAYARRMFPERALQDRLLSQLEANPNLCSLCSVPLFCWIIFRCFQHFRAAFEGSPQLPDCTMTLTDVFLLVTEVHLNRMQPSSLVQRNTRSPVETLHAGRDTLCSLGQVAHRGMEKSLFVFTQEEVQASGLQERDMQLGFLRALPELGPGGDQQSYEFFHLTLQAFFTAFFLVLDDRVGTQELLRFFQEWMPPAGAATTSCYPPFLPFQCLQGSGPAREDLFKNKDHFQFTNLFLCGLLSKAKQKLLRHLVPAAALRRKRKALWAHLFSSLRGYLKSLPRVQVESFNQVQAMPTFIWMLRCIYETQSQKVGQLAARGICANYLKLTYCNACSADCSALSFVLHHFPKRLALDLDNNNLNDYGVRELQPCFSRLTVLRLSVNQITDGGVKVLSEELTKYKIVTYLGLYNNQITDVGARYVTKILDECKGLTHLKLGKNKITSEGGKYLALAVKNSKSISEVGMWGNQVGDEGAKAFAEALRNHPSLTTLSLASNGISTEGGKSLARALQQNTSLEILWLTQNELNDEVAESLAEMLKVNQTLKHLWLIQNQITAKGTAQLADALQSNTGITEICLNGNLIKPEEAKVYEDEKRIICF
The experiment is described as follows: NOD1 NF-κB luciferase reporter assay, γ-tri-DAP-stimulated HEK293T cells. A general note: A reporter such as luciferase makes a cellular process visible.
Protocol: The compounds of these inventions were identified using cell-based high through put (FITS) assays with an NO-κB-driven luciferase reporter gene as a measure of NOD1 or NOD2 activity.
Gene reporter assays: HEK293T or 697 cells containing integrated 5×NFκB-driven luciferase reporter gene were seeded into 96-well plates at 10^4 to 10^5 cells per well, and treated with respective inducers for 16 to 24 hours. […] The next day, cells were transfected with 50 ng pNF-κB-LUC (Clontech) and 5 ng Renilla luciferase gene driven by a constitutive TK promoter (pRL-TK; Promega) along with indicated plasmids. After 24 h of transfection in some experiments, cells were stimulated with various agents for 24 h or directly lysed and luciferase activities were assayed using the Dual Luciferase kit (Promega). The results for firefly luciferase activity were normalized to renilla luciferase activity. […] The mean results were obtained from triplicates.
Plates were then incubated for 60 minutes at room temperature. […] Final concentration of test compounds in assay was 4 μM. Final DMSO concentration was 1%. […] After incubation, plates were removed from incubator and allowed to equilibrate to room temperature (10-15 minutes). Three microliters of Steady-Glo® luciferase assay detection reagent (Promega) was added to entire plate using Multidrop Combi and immediately centrifuged for 30 seconds on a VSpin™ integrated microplate centrifuge at 1500 rpm (Velocity11/Agilent Technologies) and incubated for 20 minutes at room temperature. Luminescence was read on a Viewlux microplate imager (PerkinElmer).
NOD1 cell-based luciferase assay.
Luciferase-based primary assays. […] Prior to the assay, cells were suspended to a concentration of 263,000 cells per milliliter in phenol red free DMEM without serum. […] Plates were pre-incubated at room temperature for one hour. […] After incubation, plates were equilibrated to room temperature for 15 minutes. A luciferase assay was then performed by adding 20 microliters per well of the BriteLite™ Assay System reagent (Perkin Elmer). After a ten minute incubation at room temperature, light emission was measured with the Analyst™ Microplate reader (LJL Biosystems).
The cell-based HTS assay utilized NF-κB-mediated luciferase reporter gene activity as a measure of NOD1 modulation. The assay used a luminescent readout.
Using a HighRes biosolution pintool equipped with V&P Scientific pins, stamp 10 nl of 2 mM compounds in DMSO (col 5-48) and 10 nl DMSO controls (col 1-4) to plates • 5. […] Incubate cells for 1 hour at room temp. • 6. […] Incubate overnight (16 hours) in 37° C.
Equibrate plates to room temperature for 10 mins. • 2. Add 3 μL SteadyGlo well with Multidrop • 3. Spin plates for 10 secs in a Velocity11 VSpin, shake for 30 secs. • 4.

Experiment [3] addresses NOD2 (Homo sapiens, UniProt Q9HC29). As to the kind of experiment: NOD2 NF-κB luciferase reporter assay, HEK293T cells over-expressing NOD2. It counts as cell-based. Also noted: expressed in transfected cells; host or cells: HEK293T NF-κB-luciferase cells, lentiviral transduction, sorted by EGFP.
Experiment [4] addresses T2, XIAP/RIP2 interaction (Homo sapiens, UniProt P98170).
T2 construct: made in house; FLAG-RIP2: transfected HEK293T lysate
As to the kind of experiment: GST-XIAP pull-down of FLAG-RIP2 in vitro. Format: binding. Here is the method:
(A) Schematic representation of GFP-XIAP mutants. (B) Transfected HEK293T cells expressing FLAG-RIP2 together with GFP-XIAPWT, GFPXIAPE219R, GFP-XIAPH223V, GFP-XIAPE219R/H223V or GFP-control were lysed and subjected to immunoprecipitation using anti-FLAG antibody. Immunoprecipitates were analyzed by SDS/PAGE/immunoblotting using anti-FLAG and anti-GFP antibodies. Protein binding was quantified by densitometry analysis, measuring the integrated density value expressed as arbitrary units of the GFP-XIAP bands. Values are expressed as mean±SD of three independent experiments. […] Beads were analyzed by immunoblotting using anti-FLAG-HRP, anti-XIAP/anti-GST or anti-SMAC antibodies as indicated. An aliquot of lysates was also directly analyzed by immunoblotting (“input”).
In another set of experiments, for immunoprecipitation (IP), cells were lysed in IP buffer [20 mM iris pH 7.5, 135 mM NaCl, 1 mM EDTA or 1 mM EGTA (for binding assays involving NODS), 0.5% Nonidet P-40, 10% glycerol, 10 mM NaF, 1 mM DTT, 2 mM Na3VO4, 20 μM leupeptin, 1 mM PMSF, 20 mM N-ethylmaleimide, 0.5 μM iodoacetic acid, 1× protease inhibitor mix (Roche Applied Science)]. […] After incubation overnight bound immune complexes were washed four times in IP buffer, boiled in 2× Laemmli buffer and analyzed by SDS/PAGE and immunoblotted using various antibodies as specifically indicated. […]

The IC50 is the concentration that inhibits the measured activity by half.

Sequence of NOD2 (Q9HC29 whole entry): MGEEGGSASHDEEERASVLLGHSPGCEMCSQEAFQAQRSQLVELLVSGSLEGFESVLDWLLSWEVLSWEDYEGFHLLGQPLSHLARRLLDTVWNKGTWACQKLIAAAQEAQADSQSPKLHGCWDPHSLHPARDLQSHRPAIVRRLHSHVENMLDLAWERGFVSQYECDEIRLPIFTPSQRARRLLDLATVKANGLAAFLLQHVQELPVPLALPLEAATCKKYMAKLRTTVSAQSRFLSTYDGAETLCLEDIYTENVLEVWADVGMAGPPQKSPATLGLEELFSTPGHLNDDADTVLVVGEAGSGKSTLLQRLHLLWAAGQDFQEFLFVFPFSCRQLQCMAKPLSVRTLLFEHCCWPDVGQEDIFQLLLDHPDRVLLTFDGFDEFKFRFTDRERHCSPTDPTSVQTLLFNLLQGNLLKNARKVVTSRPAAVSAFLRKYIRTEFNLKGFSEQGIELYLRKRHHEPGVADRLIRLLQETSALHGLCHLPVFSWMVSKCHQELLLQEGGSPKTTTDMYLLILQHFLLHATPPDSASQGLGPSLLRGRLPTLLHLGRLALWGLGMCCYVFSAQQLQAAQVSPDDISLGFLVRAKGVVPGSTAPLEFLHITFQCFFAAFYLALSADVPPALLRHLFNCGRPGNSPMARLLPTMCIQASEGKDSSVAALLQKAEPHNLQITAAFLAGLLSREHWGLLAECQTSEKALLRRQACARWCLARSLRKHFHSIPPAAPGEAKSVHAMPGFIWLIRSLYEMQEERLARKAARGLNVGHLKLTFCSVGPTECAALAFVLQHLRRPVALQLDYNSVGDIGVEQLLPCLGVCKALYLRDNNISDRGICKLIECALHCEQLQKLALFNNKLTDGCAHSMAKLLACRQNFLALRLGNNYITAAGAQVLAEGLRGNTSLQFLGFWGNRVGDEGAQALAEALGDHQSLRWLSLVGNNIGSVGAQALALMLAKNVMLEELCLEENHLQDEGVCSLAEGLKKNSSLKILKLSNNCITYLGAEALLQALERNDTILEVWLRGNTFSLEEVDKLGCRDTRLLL
T2 sequence (P98170 whole entry): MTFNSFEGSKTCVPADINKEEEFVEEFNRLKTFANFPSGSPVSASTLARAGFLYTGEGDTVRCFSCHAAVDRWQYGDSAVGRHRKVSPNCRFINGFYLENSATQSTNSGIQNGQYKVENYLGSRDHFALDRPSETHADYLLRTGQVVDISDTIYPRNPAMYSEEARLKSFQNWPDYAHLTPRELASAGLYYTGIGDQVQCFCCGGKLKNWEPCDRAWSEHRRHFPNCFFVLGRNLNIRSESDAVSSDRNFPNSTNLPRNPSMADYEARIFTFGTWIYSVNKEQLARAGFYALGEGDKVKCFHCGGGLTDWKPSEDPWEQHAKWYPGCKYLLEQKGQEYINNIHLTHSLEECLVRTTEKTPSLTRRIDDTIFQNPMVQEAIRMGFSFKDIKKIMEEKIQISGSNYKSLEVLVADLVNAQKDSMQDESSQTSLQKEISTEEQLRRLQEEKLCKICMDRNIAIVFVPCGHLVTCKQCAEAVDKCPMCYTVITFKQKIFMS

Consider `Cc1ccc(S(=O)(=O)n2c(N)nc3ccc(C(F)(F)F)cc32)cc1` [Compound 21], for which the half-maximal inhibitory concentration (IC50) in experiment [1] was determined as 12.3 µM; in experiment [2] it was 3.9 µM; in experiment [3] it was 10 µM.
On the same counts, the results for `Cc1ccc(S(=O)(=O)n2c(N)nc3cc(F)ccc32)cc1` [Compound 22] are more than 25 µM, 1.8 µM and more than 25 µM.
On to `Cc1ccc(S(=O)(=O)n2c(N)nc3ccc(F)cc32)cc1` [Compound 23], for which the figures for the 50% inhibitory concentration (IC50) in experiment [1], in experiment [2] and in experiment [3] were more than 25 µM, 6.2 µM and more than 25 µM, respectively.
Regarding `COc1ccc2c(c1)nc(N)n2S(=O)(=O)c1ccc(C)cc1` [Compound 24], the IC50 is more than 25 µM in experiment [1], 1.9 µM in experiment [2] and 3.1 µM in experiment [3].
Take `CCOC(=O)c1ccc2nc(N)n(S(=O)(=O)c3ccc(C)cc3)c2c1` [Compound 25]: the figures for the IC50 in experiment [1], in experiment [2] and in experiment [3] were more than 25 µM, 3 µM and 7.6 µM, respectively.
On the same counts, the results for `Cc1ccc(S(=O)(=O)n2c(N)nc3c(N)cccc32)cc1` [Compound 26] are more than 25 µM, 17.5 µM and 12.8 µM.
`Cc1ccc(S(=O)(=O)n2c(CNC=O)nc3ccccc32)cc1` [Compound 27]: the IC50 came to 8.4 µM in experiment [1], 10.9 µM in experiment [2] and 15.6 µM in experiment [3].
In the case of `Cc1ccc(S(=O)(=O)n2c(NCCCO)nc3ccccc32)cc1` [Compound 28], the IC50 in experiment [1] is more than 25 µM; in experiment [2], 12.1 µM; in experiment [3], more than 25 µM.

B1: SMAC protein: recombinant SMAC protein, dimeric, binds BIR2 and BIR3 domains of XIAP (protein, UniProt Q9NR28 22-239, looked up)
Diablo IAP-binding …: LCVPVVANFKKRCFSELIRPWHKTVTIGFGVTLCAVPIAQKSEPHSLSSEALMRRAVSLVTDSTSTFLSQTTYALIEAITEYTKAVYTLTSLYRQYTSLLGKMNSEEEDEVWQVIIGARAEMTSKHQEYLKLETTWMTAVGLSEMAAEAAYQTGADQASITARNHIQLVKLQVEEVHQLSRKAETKLAEAQIEELRQKTQEEGEERAESEQEAYLRED
modifications: His6 tag
As to B1, the “Effect on XIAP/RIP2 interaction in vitro” value in experiment [4] is “concentration-dependent inhibition”.
